As usually defined, the MIC is the lowest concentration that inhibits growth of the organism.

The test system of experiment [1] is EHEC infection. The experiment is classed as in vivo, Caenorhabditis elegans. To be noted: MMC 10 μg/mL, ciprofloxacin 5 μg/mL, ampicillin 100 μg/mL, 6 h exposure; four replicates.
Experiment [2] deals with E. coli K-12. The experiment is described as follows: Minimum inhibitory concentration (MIC) assay. Conditions: Escherichia coli, K12, 16 h, lack of turbidity, read-out: MIC. It counts as cell-based, Escherichia coli. The method, then: Minimum inhibitory concentration (MIC) assay. To determine the MICs of cisplatin for E. coli K-12, enterohemorrhagic E. coli (EHEC), S. aureus, and P. aeruginosa (PAO1 and PA14), freshly inoculated cultures (at least two independent cultures) in buffered LB (TSB for S. aureus) were incubated for 16 h with varying concentrations of cisplatin, and growth inhibition was assayed by the lack of turbidity.

Experiment [3] deals with E. coli BW25113. The experiment is described as follows: Validation of persisters (three rounds of the persister assay). It counts as cell-based, Escherichia coli. To be noted: for survival rate: ciprofloxacin 5 μg/mL or ampicillin 100 μg/mL, 3 h. The method, then: Validation of persisters. To validate that the persister cells are tolerant to antibiotics, not spontaneous resistant mutants, three rounds of the persister assay were performed. Overnight (16 h) cultures of E. coli BW25113 were diluted 1:1000 with fresh buffered LB and grown to a turbidity of ˜0.8 at 600 nm. […] After the first round of antibiotic treatment, a 1 mL sample was centrifuged at 10,000 rpm for 3 min, and the cells were resuspended in 1 mL of normal saline. […] For the second and third rounds, cell suspensions were diluted 1:100 with fresh buffered LB and regrown to a turbidity of ˜0.8 at 600 nm and used for antibiotic treatment followed by the drop assay.

Experiment [4] has as its system E. coli K-12 cells. The experiment is described as follows: Test of DNA crosslinking compounds for antimicrobial activity. It counts as cell-based, Escherichia coli. As to the method: Stocks of cisplatin (2 mg/mL, Sigma-Aldrich, St. Louis, Mo., USA) were prepared in 0.1M NaClO4 and MMC (0.5 mg/mL, Fisher Scientific, Pittsburgh, Pa., USA) was prepared in water. Stocks of busulfan (2 mg/mL, Cayman Chemical, Ann Arbor, Mich., USA), melphalan (2 mg/mL, Cayman Chemical), dynemicin A (5 mg/mL, AdooQ, Irvine, Calif., USA), and tirapazamine (0.5 mg/mL, Sigma-Aldrich) were prepared in dimethylsulfoxide, the stock of cyclophosphamide (0.5 mg/mL, Cayman Chemical) was prepared in water, and the stock of carmustine (214 mg/mL, Enzo Life Sciences, Farmingdale, N.Y., USA) was prepared in ethanol.
In this Example we tested seven other DNA crosslinking compounds: busulfan (100 μg/mL), carmustine (100 μg/mL) cisplatin (100 μg/mL), cyclophosphamide (100 μg/mL), dynemicin A (200 μg/mL), melphalan (100 μg/mL), and tirapazamine (10 μg/mL).

Experiment [5] relates to E. coli K-12 BW25113 VBNC cultures. As to the kind of experiment: VBNC antibiotic killing assay. It counts as cell-based, Escherichia coli. Conditions: culturable population of VBNC cultures; MMC 10 μg/mL, ciprofloxacin 5 μg/mL, 16 h. The method, then: Overnight cultures (16 h) of E. coli K-12 BW25113 grown in LB were diluted 1:1000 in LB and grown to a turbidity of 3.0 at 600 nm. Cells were washed three times with 0.85% NaCl to remove nutrients and incubated in 0.85% NaCl for 32 days until the VBNC population was ˜1,000-fold higher than the culturable population. […] Samples (0.5 mL) were diluted 1:1 with LB to stimulate cellular respiration for 10 min prior to staining with 1 μL of 1 mM RedoxSensor™ Green dye and 1 μL of 20 mM propidium iodide. Samples were visualized in a hemocytometer (Hausser Scientific, Horsham, Pa., USA) using an Olympus BX61 confocal microscope (Olympus, Tokyo, Japan) at 200× magnification in order to determine viability of the VBNC population. Cell counting data was averaged from four images and experiment was performed with at least two independent cultures.

The test system of experiment [6] is E. coli K-12 persister cells. The experiment is described as follows: Rifampicin-induced persister cell killing assay. It counts as cell-based, Escherichia coli. The method, then:
Rifampicin-pretreatment was used to convert nearly all the E. coli exponentially-growing cells to persister cells. In brief, overnight cultures (16 h) of E. coli BW25113 were diluted 1:1000 in buffered LB and grown to a turbidity of 0.8 at 600 nm (250 mL flask, 250 rpm). Cultures were treated with rifampicin (100 μg/mL) for 30 min (250 mL flask, 250 rpm), centrifuged, and resuspended in fresh medium to remove the rifampicin. A 1 mL culture was used for a drop assay to check cell viability at 0 h. […] After 3 h, 1 mL of culture was centrifuged at 10,000 rpm for 3 min, the supernatant was discarded, the cells were resuspended in 1 mL of normal saline, and the cell suspension was serially diluted for a drop assay to check cell viability. In addition, 1 mL samples were centrifuged, and the cell pellet resuspended in 150 μL of normal saline and spread on LB agar.
To test whether lower concentrations than 500 μg/mL of cisplatin generate resistant mutants, 5 mL cultures of rifampicin-induced persister cells were treated with 200 μg/mL of cisplatin and cells were enumerated by the drop assay using LB agar, LB agar with 200 μg/mL of cisplatin (LBCP200), and LB agar with 500 μg/mL of cisplatin (LBCP500).

For experiment [7], the system named is EHEC biofilm cultures. To be noted: M9-glucose, 24 h treatment, MMC 10 μg/mL, ciprofloxacin 5 μg/mL.
In experiment [8] the test system is E. coli K-12. As to the kind of experiment: Planktonic antibiotic killing assay. It counts as cell-based, Escherichia coli. To be noted: for persistence (surviving population): late-stationary phase, MMC 10, ciprofloxacin 5, gentamicin 10 μg/mL, 3 h. As to the method: (§1) In order to obtain exponential and mid-stationary phase cultures in LB, buffered LB or TSB, overnight cultures (16 h) were diluted 1:1000 in fresh medium and grown to the desired turbidity (i.e., a turbidity below 2 at 600 nm for exponential phase and a turbidity of 3 to 4 at 600 nm for mid-stationary phase). Late-stationary phase cultures in LB or buffered LB were obtained by growing overnight cultures (16 h). In order to obtain exponential and late-stationary phase cultures in M9-glucose, overnight cultures (16 h) were washed diluted 1:1000 in M9-glucose and grown for the desired period of time (i.e., a turbidity of 0.4 at 600 nm for exponential phase and 24 h of growth for late-stationary phase). Anaerobically grown cultures were maintained with ˜20% CO2, ˜79% N2, and ˜1% H2. In order to obtain rifampicin-induced persister cultures in buffered LB, overnight cultures (16 h) were diluted 1:1000 in fresh medium and grown to a turbidity of 0.8 at 600 nm. Cultures were exposed to rifampicin (100 μg/mL) for 30 min, centrifuged, and resuspended in fresh medium to remove the rifampicin.

For experiment [9], the system named is E. coli O157:H7 (EHEC). As to the kind of experiment: Planktonic antibiotic killing assay. It counts as cell-based, Escherichia coli. To be noted: late-stationary phase, M9-glucose; MMC 10 μg/mL, ciprofloxacin 5 μg/mL, 3 h. The method, then:
as §1

In experiment [10] the test system is E. coli K-12. The experiment is classed as cell-based, Escherichia coli. Conditions: late stationary phase (16 h of growth), buffered LB; cisplatin 500 μg/mL (5×MIC), ciprofloxacin 5 μg/mL (100×MIC), 8 h. The method, then:
Persister cell killing and eradication assays (planktonic cells). For the time course experiment, late stationary phase cells of E. coli K-12 (wild-type and isogenic mutants) were prepared by growing cells overnight (16 h) in LB medium buffered with 100 mM KPO4 at pH 7.0 (buffered LB). A 1 mL culture was used for a drop (10 μL×3) assay to check cell viability at 0 h (i.e., before antibiotic treatment). […] At 1 h intervals, 1 mL culture was centrifuged at 10,000 rpm for 3 min, the supernatant was discarded, the cells were resuspended in 1 mL of normal saline (0.85% NaCl), and the cell suspension was serially diluted for a drop assay to check cell viability.
To test for eradication, the wild-type E. coli K-12 cells were treated with cisplatin for 12 h, a 1 mL sample was centrifuged, the cell pellet was resuspended in 150 μL of normal saline, and the cells were spread on LB agar to check cell viability. Another 1 mL culture was diluted 1:10 with fresh buffered LB and the cells were incubated to allow any remaining cells to replicate. After 12 h, 18 h, and 24 h, 1 mL samples were centrifuged, resuspended in 150 μL of normal saline and spread on LB agar plates to check cell viability. At least two independent cultures were used.

Experiment [11] concerns S. aureus biofilm cultures. The experiment is described as follows: Biofilm antibiotic killing assay. It counts as cell-based, Staphylococcus aureus. Conditions: minimal medium (modified M9-glucose), 24 h treatment, MMC 10 μg/mL, ciprofloxacin 5 μg/mL.
Experiment [12] deals with S. aureus (methicillin sensitive). The experiment is described as follows: Planktonic antibiotic killing assay. It counts as cell-based, Staphylococcus aureus. Conditions: rich medium (TSB), MMC 10 μg/mL, ciprofloxacin 5 μg/mL, 3 h. As to the method: as §1

≈ marks a conversion by molar mass, not a printed value. Read-outs that look alike come from different tables or passages of the source.

For `CC1(C)S[C@@H]2[C@H](NC(=O)[C@H](N)c3ccccc3)C(=O)N2[C@H]1C(=O)O` [ampicillin], the “survival of the EHEC-infected worms” value in experiment [1] is “enhanced the survival”. The minimal inhibitory concentration (MIC) in [2] turned out to be 10 µg/mL (≈ 28.6 µM). The “resistant colonies on antibiotic agar” value in [3] (LBCipro5 or LBAmp100 agar) is on record as “no colonies were detected”. The survival rate in experiment [3] (round 1) came out at 0.001±0.001%; in [3] (round 2), 0.0001±0.0000%; in experiment [3] (round 3), 0.0001±0.0000%.

For `CS(=O)(=O)OCCCCOS(C)(=O)=O` [busulfan], the antimicrobial activity entry in experiment [4] (100 μg/mL) was “only cisplatin exhibited antimicrobial activity”.

For the molecule `O=NN(CCCl)C(=O)NCCCl` [carmustine], the antimicrobial activity result in [4] (100 μg/mL) is given as “only cisplatin exhibited antimicrobial activity”.

For the molecule `O=C(O)c1cn(C2CC2)c2cc(N3CCNCC3)c(F)cc2c1=O` [ciprofloxacin], the “survival of the EHEC-infected worms” value in experiment [1] was “enhanced the survival”. Also, the “survival of the culturable population” value in [5] was found to be 0.40±0.05%. Moreover, the “surviving fraction of persister cells” value in [6] is reported as 9±1%. Besides, the cells surviving in [7] is recorded as 3±1%. Moreover, the MIC in [2] is 0.05 µg/mL (≈ 0.151 µM). Also, the survival in [8] (anaerobic, late-stationary phase cells in rich medium (LB)) is reported as 0.44±0.08%; in [11] it was 18±2%; in experiment [12] (exponential phase), 0.55±0.04%; in experiment [12] (mid-stationary phase), 2.2±0.1%. For the same molecule, the “susceptibility of exponential-phase cultures” value in [8] (exponential phase, M9-glucose) is recorded as “similarly susceptible”. Besides, the “persistence (surviving population)” value in [8] (M9-glucose) is listed as 10±1%. In experiment [9], this molecule displayed a cells survived of 1.2±0.1%. Further, the “time course dependent killing” value in [10] is “had little activity”. Moreover, the survival rate in experiment [3] (round 1) is given as 0.045±0.008%; in experiment [3] (round 2), 0.03±0.01%; in [3] (round 3), 0.012±0.002%.

`O=P1(N(CCCl)CCCl)NCCCO1` (centres unmarked) [cyclophosphamide]: the antimicrobial activity entry in [4] (100 μg/mL) is “only cisplatin exhibited antimicrobial activity”.

Turning to `COC1=C(C(=O)O)[C@H](C)[C@@]23O[C@]24c2cc(O)c5c(c2N[C@H]3C#C/C=C\C#C[C@H]14)C(=O)c1c(O)ccc(O)c1C5=O` [dynemicin A], the antimicrobial activity result in [4] is recorded as “only cisplatin exhibited antimicrobial activity”.

Take `N[C@@H](Cc1ccc(N(CCCl)CCCl)cc1)C(=O)O` [melphalan]: in [4] (100 μg/mL), the antimicrobial activity entry is given as “only cisplatin exhibited antimicrobial activity”.

For the molecule `Nc1n[n+]([O-])c2ccccc2[n+]1[O-]` [tirapazamine], the antimicrobial activity entry in [4] (10 μg/mL) was “only cisplatin exhibited antimicrobial activity”.

Turning to gentamicin, in experiment [8] (M9-glucose), the “persistence (surviving population)” value turned out to be 44±5%.

The values above are taken from patent publication US10238689B2, “Methods for combating bacterial infections by killing persister cells with mitomycin C and/or cisplatin” (THE PENN STATE RESEARCH FOUNDATION, priority 2015, dated 2019).
